# ChEMBL document CHEMBL3585344, “Thiazole-based aminopyrimidines and N-phenylpyrazolines as potent antimicrobial agents: synthesis and biological evaluation” (2014)
# What was measured:
# [1] = test system: Staphylococcus aureus; assay: Antibacterial activity against Staphylococcus aureus ATCC 6538 after 24 hrs by microdilution method; format: functional; conditions: ATCC 6538, 24 h
# [2] = test system: Bacillus cereus; assay: Antibacterial activity against Bacillus cereus clinical isolate after 24 hrs by microdilution method; format: functional
# [3] = test system: Micrococcus flavus; assay: Antibacterial activity against Micrococcus flavus ATCC 10240 after 24 hrs by microdilution method; format: functional; conditions: ATCC 10240, 24 h
# [4] = test system: Listeria monocytogenes; assay: Antibacterial activity against Listeria monocytogenes NCTC 7973 after 24 hrs by microdilution method; format: functional; conditions: NCTC 7973, 24 h
# [5] = test system: Staphylococcus aureus; assay: Bactericidal activity against Staphylococcus aureus ATCC 6538 after 72 hrs by microdilution method; format: functional
# [6] = test system: Bacillus cereus; assay: Bactericidal activity against Bacillus cereus clinical isolate after 72 hrs by microdilution method; format: functional
# [7] = test system: Micrococcus flavus; assay: Bactericidal activity against Micrococcus flavus ATCC 10240 after 72 hrs by microdilution method; format: functional
# [8] = test system: Listeria monocytogenes; assay: Bactericidal activity against Listeria monocytogenes NCTC 7973 after 72 hrs by microdilution method; format: functional
# [9] = test system: Pseudomonas aeruginosa; assay: Antibacterial activity against Pseudomonas aeruginosa ATCC 27853 after 24 hrs by microdilution method; format: functional; conditions: ATCC 27853, 24 h
# [10] = test system: Salmonella typhimurium; assay: Antibacterial activity against Salmonella typhimurium ATCC 13311 after 24 hrs by microdilution method; format: functional, Salmonella enterica subsp. enterica serovar Typhimurium; conditions: Salmonella enterica, ATCC 13311, 24 h
# [11] = test system: Escherichia coli; assay: Antibacterial activity against Escherichia coli ATCC 35210 after 24 hrs by microdilution method; format: functional; conditions: ATCC 35210, 24 h
# [12] = test system: Enterococcus faecalis; assay: Antibacterial activity against Enterococcus faecalis ATCC 7080 isolated from human after 24 hrs by microdilution method; format: functional; conditions: ATCC 7080, 24 h
# [13] = test system: Enterobacter cloacae; assay: Antibacterial activity against Enterobacter cloacae ATCC 35030 isolated from human after 24 hrs by microdilution method; format: functional; conditions: ATCC 35030, 24 h
# [14] = test system: Pseudomonas aeruginosa; assay: Bactericidal activity against Pseudomonas aeruginosa ATCC 27853 after 72 hrs by microdilution method; format: functional
# [15] = test system: Salmonella typhimurium; assay: Bactericidal activity against Salmonella typhimurium ATCC 13311 after 72 hrs by microdilution method; format: functional, Salmonella enterica subsp. enterica serovar Typhimurium
# [16] = test system: Escherichia coli; assay: Bactericidal activity against Escherichia coli ATCC 35210 after 72 hrs by microdilution method; format: functional
# [17] = test system: Enterococcus faecalis; assay: Bactericidal activity against Enterococcus faecalis ATCC 7080 isolated from human after 72 hrs by microdilution method; format: functional
# [18] = test system: Enterobacter cloacae; assay: Bactericidal activity against Enterobacter cloacae ATCC 35030 isolated from human after 72 hrs by microdilution method; format: functional
# [19] = test system: Aspergillus ochraceus; assay: Antifungal activity against Aspergillus ochraceus ATCC 12066 after 72 hrs by microdilution method; format: functional; conditions: ATCC 12066, 72 h
# [20] = test system: Aspergillus versicolor; assay: Antifungal activity against Aspergillus versicolor ATCC 11730 after 72 hrs by microdilution method; format: functional; conditions: ATCC 11730, 72 h
# [21] = test system: Aspergillus flavus; assay: Antifungal activity against Aspergillus flavus ATCC 9643 after 72 hrs by microdilution method; format: functional; conditions: ATCC 9643, 72 h
# [22] = test system: Aspergillus niger; assay: Antifungal activity against Aspergillus niger ATCC 6275 after 72 hrs by microdilution method; format: functional; conditions: ATCC 6275, 72 h
# [23] = test system: Aspergillus fumigatus; assay: Antifungal activity against Aspergillus fumigatus isolated from human after 72 hrs by microdilution method; format: functional
# [24] = test system: Aspergillus ochraceus; assay: Fungicidal activity against Aspergillus ochraceus ATCC 12066 after 72 hrs by microdilution method; format: functional
# [25] = test system: Aspergillus versicolor; assay: Fungicidal activity against Aspergillus versicolor ATCC 11730 after 72 hrs by microdilution method; format: functional
# [26] = test system: Aspergillus flavus; assay: Fungicidal activity against Aspergillus flavus ATCC 9643 after 72 hrs by microdilution method; format: functional
# [27] = test system: Aspergillus niger; assay: Fungicidal activity against Aspergillus niger ATCC 6275 after 72 hrs by microdilution method; format: functional
# [28] = test system: Aspergillus fumigatus; assay: Fungicidal activity against Aspergillus fumigatus isolated from human after 72 hrs by microdilution method; format: functional
# [29] = test system: Trichoderma viride; assay: Antifungal activity against Trichoderma viride IAM 5061 after 72 hrs by microdilution method; format: functional; conditions: IAM 5061, 72 h
# [30] = test system: Penicillium ochrochloron; assay: Antifungal activity against Penicillium ochrochloron ATCC 9112 after 72 hrs by microdilution method; format: functional; conditions: ATCC 9112, 72 h
# [31] = test system: Talaromyces funiculosus; assay: Antifungal activity against Penicillium funiculosum ATCC 36839 after 72 hrs by microdilution method; format: functional; conditions: ATCC 36839, 72 h
# [32] = test system: Trichoderma viride; assay: Fungicidal activity against Trichoderma viride IAM 5061 after 72 hrs by microdilution method; format: functional
# [33] = test system: Penicillium ochrochloron; assay: Fungicidal activity against Penicillium ochrochloron ATCC 9112 after 72 hrs by microdilution method; format: functional
# [34] = test system: Talaromyces funiculosus; assay: Fungicidal activity against Penicillium funiculosum ATCC 36839 after 72 hrs by microdilution method; format: functional
Structure (SMILES),MIC [1] [µM],MIC [2] [µM],MIC [3] [µM],MIC [4] [µM],MIC [9] [µM],MIC [10] [µM],MIC [11] [µM],MIC [12] [µM],MIC [19] [µM],MIC [20] [µM],MIC [21] [µM],MIC [22] [µM],MBC99.5 [5] [×10⁻² umol/ml],MBC99.5 [6] [×10⁻² umol/ml],MBC99.5 [7] [×10⁻² umol/ml],MBC99.5 [8] [×10⁻² umol/ml],MBC99.5 [14] [×10⁻² umol/ml],MBC99.5 [15] [×10⁻² umol/ml],MBC99.5 [16] [×10⁻² umol/ml],MBC99.5 [17] [×10⁻² umol/ml],further results
CN[C@@H]1[C@H](O[C@H]2[C@H](O[C@H]3[C@H](O)[C@@H](O)[C@H](N=C(N)N)[C@@H](O)[C@@H]3N=C(N)N)O[C@@H](C)[C@]2(O)C=O)O[C@@H](CO)[C@H](O)[C@H]1O [STREPTOMYCIN],172,43,86,258,172,172,172,43,–,–,–,–,34.4,8.6,17.2,51.6,34.4,34.4,34.4,8.6,MIC [13]: 43 µM; MBC99.5 [18]: 8.6 ×10⁻² umol/ml
CNc1nc(C)c(C2=NN(c3ccccc3)C(c3ccc(C)cc3)C2)s1 (centres undefined),110,55.2,276,96,276,110,276,442,96,55.2,110,442,27.6,27.6,58.6,11.04,33.12,27.6,58.6,58.64,MIC [23]: 276 µM; MFC99.5 [24]: 11.04 ×10⁻² umol/ml; MFC99.5 [25]: 27.6 ×10⁻² umol/ml; MFC99.5 [26]: 27.6 ×10⁻² umol/ml; MFC99.5 [27]: 58.6 ×10⁻² umol/ml; MFC99.5 [28]: 44.16 ×10⁻² umol/ml; MIC [29]: 55.2 µM; MIC [30]: 276 µM; MIC [31]: 276 µM; MFC99.5 [32]: 11.04 ×10⁻² umol/ml; MFC99.5 [33]: 44.6 ×10⁻² umol/ml; MFC99.5 [34]: 44.16 ×10⁻² umol/ml
CC1(C)S[C@@H]2[C@H](NC(=O)[C@H](N)c3ccccc3)C(=O)N2[C@H]1C(=O)O [AMPICILLIN],248,248,248,372,744,248,372,248,–,–,–,–,37.2,37.2,37.2,74.4,124,49.2,49.2,37.2,MIC [13]: 248 µM; MBC99.5 [18]: 37.2 ×10⁻² umol/ml

# The next molecules have a lower MIC [1] than those just listed; values first:
MIC [1] [µM],MIC [2] [µM],MIC [3] [µM],MIC [4] [µM],MIC [9] [µM],MIC [10] [µM],MIC [11] [µM],MIC [12] [µM],MIC [19] [µM],MIC [20] [µM],MIC [21] [µM],MIC [22] [µM],Structure (SMILES),MBC99.5 [5] [×10⁻² umol/ml],MBC99.5 [6] [×10⁻² umol/ml],MBC99.5 [7] [×10⁻² umol/ml],MBC99.5 [8] [×10⁻² umol/ml],MBC99.5 [14] [×10⁻² umol/ml],MBC99.5 [15] [×10⁻² umol/ml],MBC99.5 [16] [×10⁻² umol/ml],MBC99.5 [17] [×10⁻² umol/ml],further results
14.5,58,58,14.5,290,290,348,290,14.5,14.5,58,58,Cc1nc(-c2ccccc2)sc1-c1cc(-c2ccccc2)nc(N)n1,5.8,40.6,29,36.25,40.6,34.8,40.6,34.8,MIC [23]: 58 µM; MFC99.5 [24]: 5.8 ×10⁻² umol/ml; MFC99.5 [25]: 9 ×10⁻² umol/ml; MFC99.5 [26]: 29 ×10⁻² umol/ml; MFC99.5 [27]: 40.6 ×10⁻² umol/ml; MFC99.5 [28]: 34.8 ×10⁻² umol/ml; MIC [29]: 14.5 µM; MIC [30]: 348 µM; MIC [31]: 348 µM; MFC99.5 [32]: 29 ×10⁻² umol/ml; MFC99.5 [33]: 40.6 ×10⁻² umol/ml; MFC99.5 [34]: 34.8 ×10⁻² umol/ml
27.3,54.6,54.6,54.6,27.3,54.6,54.6,54.6,54.6,54.6,54.6,478,CNc1nc(C)c(C2=NN(c3ccccc3)C(c3ccc(F)cc3)C2)s1 (centres undefined),27.3,27.3,47.8,95.5,27.3,27.3,47.8,27.3,MIC [23]: 54.6 µM; MFC99.5 [24]: 27.3 ×10⁻² umol/ml; MFC99.5 [25]: 21.4 ×10⁻² umol/ml; MFC99.5 [26]: 47.8 ×10⁻² umol/ml; MFC99.5 [27]: 95.5 ×10⁻² umol/ml; MFC99.5 [28]: 10.92 ×10⁻² umol/ml; MIC [29]: 109 µM; MIC [30]: 214 µM; MIC [31]: 109 µM; MFC99.5 [32]: 47.8 ×10⁻² umol/ml; MFC99.5 [33]: 47.8 ×10⁻² umol/ml; MFC99.5 [34]: 27.3 ×10⁻² umol/ml
27.6,55.2,110,55.2,276,276,276,110,27.6,55.2,110,309,CCNc1nc(C)c(C2=NN(c3ccccc3)C(c3ccccc3)C2)s1 (centres undefined),27.6,27.6,44.16,11.04,44.16,30.9,44.16,27.6,MIC [23]: 110 µM; MFC99.5 [24]: 11.04 ×10⁻² umol/ml; MFC99.5 [25]: 27.6 ×10⁻² umol/ml; MFC99.5 [26]: 27.6 ×10⁻² umol/ml; MFC99.5 [27]: 44.16 ×10⁻² umol/ml; MFC99.5 [28]: 44.16 ×10⁻² umol/ml; MIC [29]: 276 µM; MIC [30]: 309 µM; MIC [31]: 110 µM; MFC99.5 [32]: 30.9 ×10⁻² umol/ml; MFC99.5 [33]: 44.16 ×10⁻² umol/ml; MFC99.5 [34]: 30.9 ×10⁻² umol/ml
